Data: US11344571B2, “NO containing compositions” (University Court of the University of St. Andrews, priority 2015, dated 2022)
Structures can show the parent of a compound that is named as a salt. One block for each compound: values may come before it.

Key:
[1] = Gravimetric NO adsorption/desorption isotherms at 298K; type: physicochemical
Description: The nitric oxide adsorption/desorption profiles for two further chlorhexidine diacetate samples (25 mg) were collected using a bespoke gravimetric adsorption system. Each sample was exposed to high vacuum at a pressure of 1×10^−4 mbar overnight until no further mass loss was observed. The samples were cooled to 298K using a water bath (temperature accuracy of 0.02K).
For one sample, shown in the outer plot of FIGS. 2A-2B, NO was introduced in increasing increments. After each dose of NO, the mass of the sample was allowed to stabilise (indicating completion of adsorption) before the next addition was made. This process was continued until the introduced pressure of NO was equal to atmospheric pressure. The second sample was exposed to one atmosphere of NO in a single step, and its mass allowed to equilibrate. Data is shown in the inner plot of FIGS. 2A-2B. The desorption profiles of both samples, shown in FIGS. 2A-2B, were measured by reducing the pressure in increments to a final value of 2×10^−2 mbar.

[2] = NO release triggered by constant flow of humid nitrogen gas (11% RH), chemiluminescence nitric oxide analyser; type: physicochemical; details: humid nitrogen 11% RH; for total nitric oxide released: in 19 hr
From the text: The release of NO from the sample was first triggered by passing a constant flow of humid nitrogen gas (11% RH) over it. The amount of NO released over time was detected using a Sievers NOA 280i chemiluminescence nitric oxide analyser until the emission of NO reached a level lower than 20 ppb.

[3] = NO release from NO-loaded sample submersed in deionized water, chemiluminescence analysis; type: physicochemical
Description: The NO-loaded sample was submersed under 5 ml of deionized water in a sealed chamber connected to an NO analyser. A constant flow of nitrogen was bubbled through the suspension while measuring the concentration of NO present in the chamber atmosphere.
The release of NO from the sample triggered by the water was measured in ppm and ppb over time until the level of NO dropped below 20 ppb. The initial burst release of NO reached 40 ppm. The sample released up to 0.035 mmol/g of nitric oxide in 7 hrs (FIG. 5A).

[4] = NO release triggered by UV light (300-400 nm), chemiluminescence analysis
Description: After the NO release was completed the sample was kept on the bench at room temperature, exposed to air and humidity for over 48 hr.
The release of NO over time was recorded using the same analyser described above.

maximum NO adsorbed ([1]; NO pressure up to atmospheric, gravimetric): ~0.9 mmole of NO per gram
level of stored NO after reapplication of vacuum ([1]; desorption to 2x10^-2 mbar, both samples): ~0.4 mmole per gram
initial burst of release of NO (peak) [2]: 512 PPM
total NO release ([2]; in 18 hrs): 0.03 mmol/g
total nitric oxide released [2]: up to 0.042 mmol/g
initial burst release of NO (peak) ([3]; 100 mg under 5 ml deionized water, nitrogen bubbled): 40 ppm
total nitric oxide released ([3]; in water, in 7 hrs): up to 0.035 mmol/g
UV-triggered immediate burst of NO release ([4]; burst from 30 ppb, after over 48 hr on bench in air and humidity): 105 ppb
maximum NO on continuous UV exposure ([4]; continuous exposure about 5 mins, after over 48 hr storage in air): around 120 ppb
NO release level sustained under continuous UV exposure ([4]; for more than 4 hrs): over 70 ppb
maximum NO on continuous UV exposure ([4]; sample in water, immediately after water-triggered release, about 10 minutes): around 1000 ppb
SMILES: N=C(NCCCCCCNC(=N)NC(=N)Nc1ccc(Cl)cc1)NC(=N)Nc1ccc(Cl)cc1 [chlorhexidine diacetate]
maximum NO adsorbed, molecules of NO per molecule of chlorhexidine ([1]; NO pressure up to atmospheric): 0.55 molecules of NO per molecule of chlorhexidine
level of stored NO after reapplication of vacuum, molecules per molecule of chlorhexidine ([1]; desorption to 2x10^-2 mbar): circa 0.25 molecules per molecule of chlorhexidine

duration of initial burst release of NO on humidity [2]: a couple of minutes
UV-triggered burst of NO (peak) ([4]; after 2 days on bench in humid air): up to 150 ppb
NO level to which UV-triggered burst dropped ([4]; over 1 hr, after 2 days in humid air): 75 ppb
SMILES: N=C(NCCCCCCNC(=N)NC(=N)Nc1ccc(Cl)cc1)NC(=N)Nc1ccc(Cl)cc1 [chlorhexidine dihydrochloride]

duration of initial burst release of NO on humidity [2]: a couple of minutes
SMILES: O=C(O)c1cn(C2CC2)c2cc(N3CCNCC3)c(F)cc2c1=O [ciprofloxacin]

initial burst of release of NO (peak) [2]: 512 ppm
total nitric oxide released [2]: up to 0.042 mmol/g
SMILES: NS(=O)(=O)c1cc(C(=O)O)c(NCc2ccco2)cc1Cl [furosemide]
